# Entries after “also recorded” stand apart in the source; their conditions may differ.
# Tests used:
# several human cell lines = assay: Cytotoxicity / growth inhibition of several human cell lines; type: cell-based; conditions: in words
# Solubility properties = type: physicochemical; conditions: relative to the natural product; in words
# RNA synthesis, HL-60 = assay: Inhibition of RNA biosynthesis in HL-60 (5-3H-uridine incorporation); type: cell-based; conditions: Homo sapiens, 5-3H-uridine pulse label, read-out: ID50 RNA
# Method: (§1) ^b The percentages of macromolecule biosynthesis inhibition were
# (§2) calculated from the specific activities of incorporated precursors (c-e)
# (§3) into 10^6 cells in drug treated as versus control cells. ID50
# (§4) values were obtained by plotting the logarithmic drug concentrations
# (§5) against the percentage inhibition of macromolecule biosynthesis.
# (§6) ^d Exponentially growing cells pulse labeled with 2 μCi [5^3
# (§7) Huridine (28 Ci/mmole) per ml of cell suspension.
# (§8) Macromolecule biosynthesis in the presence of hormothamnion was measured via radioactive precursor incorporation studies using HL-60 and KB cell lines.
# gram positive = assay: Gram positive antimicrobial activity; type: cell-based; conditions: in words
# P-388 = assay: Inhibition of cell growth, P-388; type: cell-based
# Method: (§9) Inhibition of Cell Growth and Macromolecule Biosynthesis in -Several
# (§10) Cancerous Human Cell Lines by Hormothamnione (1)
# (§11) ^a ID50 is the drug concentration required to inhibit cell growt
# (§12) to 50% of control levels.
# as §8
# DNA synthesis, KB = assay: Inhibition of DNA biosynthesis in KB (3H-thymidine incorporation); type: cell-based; conditions: Homo sapiens, 3H-thymidine pulse label, read-out: ID50 DNA
# Method: as §1, §2, §3, §4, §5
# (§13) ^c Exponentially growing cells pulse labeled with 1 μCi of ^3
# (§14) Hthymidine (16.6 Ci/mmole) per ml of cell suspension.
# as §8
# DNA synthesis, HL-60 = assay: Inhibition of DNA biosynthesis in HL-60 (3H-thymidine incorporation); type: cell-based; conditions: Homo sapiens, 3H-thymidine pulse label, read-out: ID50 DNA
# Method: as §1, §2, §3, §4, §5, §13, §14, §8
# HL-60 = assay: Inhibition of cell growth, HL-60; type: cell-based, human
# Method: as §9, §10, §11, §12, §8
# RNA synthesis, KB = assay: Inhibition of RNA biosynthesis in KB (5-3H-uridine incorporation); type: cell-based; conditions: Homo sapiens, 5-3H-uridine pulse label, read-out: ID50 RNA
# Method: as §1, §2, §3, §4, §5, §6, §7, §8
# RNA synthesis = assay: Macromolecule biosynthesis: inhibition of RNA synthesis (mode of action); type: cell-based, human; conditions: in words
# Method: as §1, §2, §3, §4, §5, §6, §7, §8
# Protein synthesis, KB = assay: Inhibition of protein biosynthesis in KB (3H-L-leucine incorporation); type: cell-based; conditions: Homo sapiens, 3H-L-leucine pulse label, read-out: ID50 Protein
# Method: as §1, §2, §3, §4, §5
# (§15) ^e Exponentially growing cells pulse labeled with 1 μCi of ^3
# (§16) HL-leucine (130 Ci/mmole) per ml of cell suspension.
# as §8
# Bacillus subtilus = assay: Paper disc-agar plate antimicrobial test; type: cell-based
# Protein synthesis, HL-60 = assay: Inhibition of protein biosynthesis in HL-60 (3H-L-leucine incorporation); type: cell-based; conditions: Homo sapiens, 3H-L-leucine pulse label, read-out: ID50 Protein
# Method: as §1, §2, §3, §4, §5, §15, §16, §8
smiles,measurement,setting,value
COc1cc(O)c2c(=O)c(C)c(/C=C/c3cc(O)cc(O)c3)oc2c1OC [compound of formula (3)],inhibited the growth of several human cell lines,several human cell lines,inhibited the growth of several human cell lines
same,effect on growth compared with hormothamnion,several human cell lines; relative to hormothamnion,less than observed with hormothamnion
COc1c(OC)c(OC(C)=O)c2c(=O)c(C)c(/C=C/c3cc(OC(C)=O)cc(OC(C)=O)c3)oc2c1OC [derivative (2)],solubility properties,Solubility properties,more favorable
COc1c(OC)c(O)c2c(=O)c(C)c(/C=C/c3cc(O)cc(O)c3)oc2c1OC [hormothamnion],IC50,"RNA synthesis, HL-60",0.001 µg/mL
same,cytotoxin to several human cancerous cell lines,several human cell lines,potent cytotoxin
same,gram positive antimicrobial activity,gram positive,minimal
same,IC50,"P-388; P388, P-388, read-out: ID50 Cell Growth",0.0046 µg/mL
same,cytotoxic agent to P388 lymphocytic leukemia,P-388; in words,potent
same,IC50,"DNA synthesis, KB",0.53 µg/mL
same,IC50,"DNA synthesis, HL-60",0.3 µg/mL
same,IC50,"HL-60; Homo sapiens, read-out: ID50 Cell Growth",0.0001 µg/mL
same,cytotoxic agent to HL-60 human promyelocytic leukemia,HL-60; in words,potent
same,IC50,"RNA synthesis, KB",0.14 µg/mL
same,inhibition of RNA synthesis (mode of cytotoxic action),RNA synthesis,appears to operate via inhibition of RNA synthesis; also recorded: A major mode of cytotoxic action of hormothamnion appears to be by inhibition of RNA synthesis
same,inhibition of RNA synthesis (mode of cytotoxic action),RNA synthesis; listed as Hormothamnion,selective inhibition of RNA synthesis
same,IC50,"Protein synthesis, KB",> 0.5 µg/mL
same,zone of inhibition at 25 µg/disc,Bacillus subtilus; 25 μg per 6 mm paper disc,8 mm
same,zone of inhibition at 100 µg/disc,Bacillus subtilus; 100 μg per 6 mm paper disc,10 mm
same,IC50,"Protein synthesis, HL-60",> 0.5 µg/mL

# Reference: US4935529A, “Cytoxic substances from the marine cyanophyte hormothamnion enteromorphoides grunow” (State of Oregon acting by and through the Oregon State …, priority 1989, dated 1990)
